One data set addresses T1, VEGFR-2 (Homo sapiens, UniProt P35968).
T1 construct: purchased BPS Bioscience 40325
In words: In-vitro VEGFR-2 kinase assay (BPS Bioscience kit, Kinase-Glo MAX). In kind it is biochemical. The conditions noted are these: mean ± S.D of three experiments. How it is done: The VEGFR-2 Kinase Assay Kit [Catalog no., 40325, BPS Bioscience®, USA] is designed to measure VEGFR-2 kinase activity for screening and profiling applications using Kinase-Glo® MAX as a detection reagent. The VEGFR-2 Kinase Assay Kit comes in a convenient 96-well format, with enough purified recombinant VEGFR2 enzyme and VEGFR2 substrate. The assay protocol was carried out according to manufacturer instructions.
Background: Kinase-Glo reads ATP consumption through a luciferase reaction.

The test system of a further data set is H9C2 cells. Put plainly: H9C2 cardiomyocyte viability, SRB assay. In kind it is cell-based, rat. The settings on record: for IC50: 72 h, SRB. On the procedure:
(§1) Hepatocellular carcinoma (HepG2) and rat heart/myocardium (H9C2) were obtained from Nawah Scientific Inc., (Mokattam, Cairo, Egypt). Cells were maintained in DMEM media supplemented with […] of streptomycin (3810–74-0), 100 units/mL of penicillin (113–98-4) and 10% of heat-inactivated fetal bovine serum in humidified, 5% (v/v) CO2 atmosphere at 37 °C.
(§2) Cell viability was assessed by SRB assay,[67]. Aliquots of 100 μL cell suspension (5 × 10^3 cells) were in 96-well plates and incubated in complete media for 24 h. […] After 72 h of drug exposure, cells were fixed by replacing media with 150 μL of 10% TCA (76–03-9) and incubated at 4 °C for 1 h. The TCA solution was removed, and the cells were washed 5 times with distilled water. Aliquots of 70 μL SRB (3520–42-1) solution (0.4% w/v) were added and incubated in a dark place at room temperature for 10 min. Plates were washed 3 times with 1% acetic acid (64–19-7) and allowed to air-dry overnight. Then, 150 μL of TRIS (77–86-1) (10 mM) was added to dissolve protein-bound SRB stain; the absorbance was measured at 540 nm using a BMG LABTECH®- FLUOstar Omegammicroplate reader (Ortenberg, Germany).

Data set [1] has as its system heart creatine kinase (CK). In words: Heart creatine kinase (CK) ELISA in 8 Gy irradiated mice. The settings on record: 50 mg/kg p.o., 3 days. In kind it is in vivo. On the procedure: (§3) Whole body γ-irradiation of mice was performed at the NCRRT using the Gamma Cell-40 biological irradiator with a Cesium-137 irradiator unit, produced by the atomic energy of Canada limited (Sheridan science and technology park, Mississauga, Ontario, Canada). Mice were exposed to an acute dose of 8 Gy according to Yoo et al..
(§4) A total 32 mice were randomly allocated into 4 groups as follows: 1- control normal [Control] mice received vehicle (10% DMSO). 2- Irradiated mice (8 Gy) received vehicle [IRR]. […] 4- Irradiated mice treated with Compound 4d (50 mg/ kg body wt./ p.o) for 3 successive days, [IRR + cmp 4d]. After 3 days, all animals were anesthetized with ketamine (80 mg/ kg), blood samples were collected via retro-orbital plexus, and then serum samples were separated after centrifugation. Heart and liver samples were dissected and rapidly washed with cool saline then heart samples were stored at -80 °C till assay time. One lobe of liver was embedded in 10% formalin for immunohistochemistry assay.
Heart tissues of mice were weighted and minced then homogenized in cold fresh lysis buffer, the homogenate was centrifuged for 5 min at 4000 rpm, and then the supernatant was used for assay. Cardiac contents of CK, TNF-α and Caspase-9 were measured according to manufacturer instructions using CK ELISA kit [catalog no. EK730963, AFG Bioscience®, USA], TNF-α ELISA kit [catalog no. SEA626Ra, Cloud-Clone Corp®, USA] and Caspase-9 ELISA kit [catalog no. E-EL-R02054, Elabsciense®, USA], respectively.
Background: In an ELISA, binding on a coated surface is turned into a signal by an enzyme label.

The subject of another data set is hepatic VEGF. In words: Immunohistochemistry expression of VEGF in liver tissue of irradiated mice. In kind it is in vivo. The settings on record: 50 mg/kg p.o., 3 days, 8 Gy irradiated mice, vs irradiated animals. How it is done:
as §3, §4
Immunohistochemical study was carried out on paraffin tissue sections prepared for the detection VEGF, liver tissue sections were incubated separately with anti- VEGF (Gene Tex, USA). The expression of each marker was visualized by the chromogen 3,3-diaminobenzidine tetrahydrochloridem (DAB, Sigma Chemical Co.).

In a further data set the test system is cardiac caspase-9. Put plainly: Cardiac caspase-9 ELISA in 8 Gy irradiated mice. The class given is in vivo. The settings on record: 50 mg/kg p.o., 3 days. On the procedure: as §3, §4
(§5) Heart tissues of mice were weighted and minced then homogenized in cold fresh lysis buffer, the homogenate was centrifuged for 5 min at 4000 rpm, and then the supernatant was used for assay. Cardiac contents of CK, TNF-α and Caspase-9 were measured according to manufacturer instructions using CK ELISA kit [catalog no. EK730963, AFG Bioscience®, USA], TNF-α ELISA kit [catalog no. […]

A further data set deals with serum catalase. In words: Serum catalase activity in 8 Gy irradiated mice. The class given is in vivo. The conditions noted are these: 50 mg/kg p.o., 3 days. How it is done:
as §3, §4
Serum catalase was assessed colorimetrically in all groups according to manufacturer instructions using coloring endpoint kit [Biodiagnostic co.®, Egypt].

Data set [2] concerns serum lactate dehydrogenase (LDH). In words: Serum LDH in 8 Gy irradiated mice. In kind it is in vivo. The conditions noted are these: 50 mg/kg p.o., 3 days. On the procedure: as §3, §4
Serum LDH was estimated kinetically using Spectrum® coloring assay Kit [Egyptian company for biotechnology, SAE®, Egypt]. It was carried according to manufacturer's instructions; the values were expressed as IU/ml.

In a further data set the test system is mice. The settings on record: male, Swiss albino, mouse, in vivo, po, 14 days. How it is done: For the study of the compound 4d's oral toxicity, 30 male Swiss albino mice were used. They were randomly allocated into 5 groups; the first group of mice (n = 6) received a vehicle and was used as control, while the other four groups, each received a different acute dose of compound 4d dissolved in 0.05% Tween 80 (9005–65-6) (200, 500, 800, and 1000 mg/kg p.o.). Up to 14 days after treatment, clinical toxicity symptoms (death, more than 20% weight loss, diarrhea, lethargy, tremors, and convulsions) were noted.

The test system of another data set is cardiac TNF-α. In words: Cardiac TNF-α ELISA in 8 Gy irradiated mice. In kind it is in vivo. The settings on record: in comparison to control irradiated group, 50 mg/kg p.o., 3 days. On the procedure:
as §3, §4, §5

The test system of a further data set is HepG2 cells. In words: HepG2 cell viability, SRB assay. In kind it is cell-based. The settings on record: Homo sapiens. On the procedure:
as §1, §2
In general terms: In SRB staining, fixed cells bind dye roughly in proportion to their protein.

Where [3] appears, read: 72 h, SRB, read-out: HepG2 IC50.

Like-named read-outs stand apart in the source and are kept apart here.

The term melting point denotes the temperature of the solid-liquid transition. By viability is commonly meant the share of living cells, or the viability signal relative to a control.

T1 sequence (P35968 20-1356): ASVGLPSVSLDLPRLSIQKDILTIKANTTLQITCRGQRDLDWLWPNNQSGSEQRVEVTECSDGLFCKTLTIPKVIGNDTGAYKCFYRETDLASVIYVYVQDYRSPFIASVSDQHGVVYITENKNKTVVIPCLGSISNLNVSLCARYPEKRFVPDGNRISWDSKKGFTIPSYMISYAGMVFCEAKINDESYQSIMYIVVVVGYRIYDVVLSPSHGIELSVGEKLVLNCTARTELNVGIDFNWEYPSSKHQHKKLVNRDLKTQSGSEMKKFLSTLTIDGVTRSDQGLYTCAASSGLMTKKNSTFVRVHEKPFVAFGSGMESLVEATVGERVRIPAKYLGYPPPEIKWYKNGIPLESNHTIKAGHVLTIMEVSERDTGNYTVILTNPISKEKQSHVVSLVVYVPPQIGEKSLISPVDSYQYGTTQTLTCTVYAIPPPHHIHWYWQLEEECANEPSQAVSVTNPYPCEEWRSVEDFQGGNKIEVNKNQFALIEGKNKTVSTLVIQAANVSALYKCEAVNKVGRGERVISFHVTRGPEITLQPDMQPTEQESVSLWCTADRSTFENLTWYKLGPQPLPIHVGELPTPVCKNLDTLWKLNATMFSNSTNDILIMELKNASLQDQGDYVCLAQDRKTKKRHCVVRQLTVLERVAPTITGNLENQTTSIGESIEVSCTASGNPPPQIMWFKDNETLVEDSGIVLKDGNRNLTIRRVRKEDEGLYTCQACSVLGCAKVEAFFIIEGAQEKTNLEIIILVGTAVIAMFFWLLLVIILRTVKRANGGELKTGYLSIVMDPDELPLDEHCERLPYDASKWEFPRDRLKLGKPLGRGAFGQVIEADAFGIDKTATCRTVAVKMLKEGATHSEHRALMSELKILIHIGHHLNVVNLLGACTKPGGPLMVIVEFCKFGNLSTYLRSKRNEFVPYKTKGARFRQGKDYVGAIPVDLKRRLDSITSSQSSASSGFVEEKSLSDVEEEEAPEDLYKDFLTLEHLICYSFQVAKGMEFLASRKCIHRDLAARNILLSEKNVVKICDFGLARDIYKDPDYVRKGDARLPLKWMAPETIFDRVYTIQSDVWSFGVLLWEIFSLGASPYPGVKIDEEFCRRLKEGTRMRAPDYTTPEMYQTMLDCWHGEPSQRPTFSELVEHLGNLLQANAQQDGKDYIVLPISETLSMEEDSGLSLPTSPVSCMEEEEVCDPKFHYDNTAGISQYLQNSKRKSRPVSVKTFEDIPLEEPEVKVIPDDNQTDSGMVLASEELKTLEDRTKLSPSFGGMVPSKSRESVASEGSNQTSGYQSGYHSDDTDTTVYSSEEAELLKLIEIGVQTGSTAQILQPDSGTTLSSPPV

In the case of `NS(=O)(=O)c1ccc(N=c2[nH]c3nc4ccccc4nc3s2)cc1` [Compound 4a, 4-(Thiazolo[4,5-b]quinoxalin-2(3H)-ylideneamino)benzenesulfonamide], the melting point lay in the range of 165 to 167 °C. At VEGFR-2, this compound displayed an IC50 of 169 ± 7.4 nM.
The compound `CC(=O)NS(=O)(=O)c1ccc(N=c2[nH]c3nc4ccccc4nc3s2)cc1` [Compound 4b, N-((4-(Thiazolo[4,5-b]quinoxalin-2(3H)ylideneamino)phenyl)sulfonyl)-acetamide] came in with a melting point of 245 to 247 °C. The IC50 against VEGFR-2 was 132 ± 5.7 nM.
As for `N=C(N)NS(=O)(=O)c1ccc(N=c2[nH]c3nc4ccccc4nc3s2)cc1` [Compound 4c, N-Carbamimidoyl-4-(thiazolo[4,5-b]quinoxalin-2(3H)-ylideneamino) benzene-esulfonamide], the melting point is > 260 °C. This compound also returned an IC50 against VEGFR-2 of 254 ± 11 nM.
Regarding `O=S(=O)(Nc1ccccn1)c1ccc(N=c2[nH]c3nc4ccccc4nc3s2)cc1` [Compound 4d, N-(pyridin-2-yl)-4-(thiazolo[4,5-b]quinoxalin-2(3H)-ylideneamino) benzene-sulfonamide], the “times less cytotoxic than sorafenib” value in the data set with H9C2 cells (H9C2 cardiomyocytes) is 2.93 times. In data set [1], the “CK activity compared to normal values” was “not significantly different from normal values” and the “CK level compared to IRR non-treated group” value is “did not significantly lower CK level”. In the data set on hepatic VEGF, the “expression of VEGF in liver tissue” value is given as “promisingly suppressed”. The “decrease in Caspase-9” value in the data set with cardiac caspase-9 (compared to control irradiated animals) amounted to 20.63%. Further, in the data set on serum catalase, the serum catalase activity result is on record as “normal catalase activity”. In data set [2], the “serum LDH compared to normal values” is “non-significant deviation from normal LDH values”. Moreover, the “decrease in serum LDH” value in data set [2] (compared to sorafenib treated group) was determined as 40.83%. Moreover, in the data set on mice, the “high level of safety up to” value was “up to 1000 mg/kg”. In addition, at VEGFR-2, the IC50 turned out to be 61 ± 2.6 nM. In addition, the “reduction in cardiac TNF-α” value with cardiac TNF-α is 35.75%. In the data set on HepG2 cells (72 h, SRB), this compound gave a viability at 0.01 µM of 98.55 ± 0.47%, a viability at 0.1 µM of 98.32 ± 0.97%, a viability at 1 µM of 98.1 ± 1.8% and a viability at 10 µM of 6.62 ± 0.5%. The viability at 100 µM with HepG2 cells (72 h, SRB) turned out to be 3.81 ± 0.24%. Also, the IC50 in the data set on HepG2 cells (setting [3]) was determined as 4.31 µM. Moreover, the IC50 in the data set with HepG2 cells (read-out: suppressing potency on HepG2 cells proliferation) is 4.31 µM.
The compound `O=S(=O)(Nc1ncccn1)c1ccc(N=c2[nH]c3nc4ccccc4nc3s2)cc1` [Compound 4e, N-(Pyrimidin-2-yl)-4-(thiazolo[4,5-b]quinoxalin-2(3H)-ylideneamino) benzene-sulfonamide] registered a melting point of 223 to 225 °C. Further, the IC50 against VEGFR-2 is 112 ± 4.8 nM.
As for `Cc1cc(NS(=O)(=O)c2ccc(N=c3[nH]c4nc5ccccc5nc4s3)cc2)no1` [Compound 4f, N-(5-Methylisoxazol-3-yl)-4-(thiazolo[4,5-b]quinoxalin-2(3H)-ylideneamino) benzene-sulfonamide], the melting point was 186 to 188 °C. On VEGFR-2, this compound gave an IC50 of 83.3 ± 3.7 nM. In addition, in the data set with HepG2 cells (72 h, SRB), the viability at 0.01 µM was 97.6 ± 1.26%, the viability at 0.1 µM stood at 97.1 ± 1.06%, the viability at 1 µM came to 96.6 ± 1.2% and the viability at 10 µM was determined as 95.5 ± 3%. The compound also returned a viability at 100 µM in the data set with HepG2 cells (72 h, SRB) of 94 ± 2.03%. In the data set with HepG2 cells (setting [3]), the IC50 was > 100 µM.
Regarding `O=S(=O)(Nc1nccs1)c1ccc(N=c2[nH]c3nc4ccccc4nc3s2)cc1` [Compound 4g, N-(Thiazol-2-yl)-4-(thiazolo[4,5-b]quinoxalin-2(3H)-ylideneamino) benzene-sulfonamide], the melting point lay within 238 to 240 °C. Also, on VEGFR-2, the IC50 amounted to 99.8 ± 4.3 nM.
In turn, `Cc1ccnc(NS(=O)(=O)c2ccc(N=c3[nH]c4nc5ccccc5nc4s3)cc2)n1` [Compound 4h, N-(4-Methylpyrimidin-2-yl)-4-(thiazolo[4,5-b]quinoxalin-2(3H)-ylideneamino)-benzenesulfonamide] gave a melting point of 199 to 201 °C. At VEGFR-2, this compound came in with an IC50 of 217 ± 9.4 nM.
On the same counts, the results for `Cc1cc(C)nc(NS(=O)(=O)c2ccc(N=c3[nH]c4nc5ccccc5nc4s3)cc2)n1` [Compound 4i, N-(4,6-Dimethylpyrimidin-2-yl)-4-(thiazolo[4,5-b]quinoxalin-2(3H)-ylideneamino) benzenesulfonamide] are 246 to 248 °C and 288 ± 13 nM.
`COc1cc(NS(=O)(=O)c2ccc(N=c3[nH]c4nc5ccccc5nc4s3)cc2)nc(OC)n1` [Compound 4j, N-(2,6-Dimethoxypyrimidin-4-yl)-4-(thiazolo[4,5-b]quinoxalin-2(3H)-ylidene-amino)-benzenesulfonamide] showed a melting point of 249 to 251 °C. For the same compound, at VEGFR-2, the IC50 is 368 ± 16 nM.
As for `CNC(=O)c1cc(Oc2ccc(NC(=O)Nc3ccc(Cl)c(C(F)(F)F)c3)cc2)ccn1` [Sorafenib, reference compound], in the data set on H9C2 cells, the IC50 was 33.5 µM. The IC50 with H9C2 cells (listed as sorafenib) is 98.1 µM. Also, the “increment in CK enzymatic activity” value in data set [1] (vs normal) amounted to 35.88%. In the data set on hepatic VEGF, the “expression of VEGF in liver tissue” value is “promisingly suppressed”. Besides, the “increase in cardiac caspase-9 levels” value in the data set on cardiac caspase-9 (over normal values) is 29.83%. In addition, the “decrease in serum catalase activity” value with serum catalase (vs normal) was determined as 6.19%. Besides, the “increase in serum LDH” value in data set [2] (vs normal) stood at 106.06%. Further, in the data set with cardiac TNF-α, the “reduction in cardiac TNF-α” value was 31.87%. Moreover, in the data set with HepG2 cells (72 h, SRB), the viability at 0.01 µM amounted to 99.58 ± 0.94%, the viability at 0.1 µM was 98.2 ± 3.19%, the viability at 1 µM was determined as 87.1 ± 2.02% and the viability at 10 µM amounted to 11.3 ± 0.31%. For the same compound, the viability at 100 µM in the data set on HepG2 cells (72 h, SRB) turned out to be 4.05 ± 0.1%. The IC50 in the data set on HepG2 cells (setting [3]) stood at 2.97 µM.

Source of the values: PMC10457369, “Novel VEGFR2 inhibitors with thiazoloquinoxaline scaffold targeting hepatocellular carcinoma with lower cardiotoxic impact” (Scientific Reports, 2023).
